Laboratory results: patent US20250325565A1, “ERAVACYCLINE FOR TREATING CANCER” (B. G. NEGEV TECHNOLOGIES AND APPLICATIONS LTD., priority 2022, published 2025)

Columns and labels:
HPNE cell line = test: XTT cell proliferation assay, normal pancreatic HPNE cells; type: cell-based, human; details: 72 h
Experimental: (§1) Human PDAC (AsPC-1, BxPC-3, Panc-1 scr, Panc-1 p53-R273H knock-out (KO) hTERT-HPNE), breast (MCF-7), lung (A549), and colon (HT-29) cancer cell lines were purchased from the American Type Culture Collection (ATCC). The MCF-7, A549, Panc-1 scr, Panc-1 p53 KO and HT-29 cell lines were grown in Dulbecco's Modified Eagle Medium (DMEM; Biological Industries, Beit HaEmek (BI), Israel), and the BxPC-3 and AsPC-1 cell lines were cultured in Roswell Park Memorial Institute-1640 (RPMI-1640; BI, Israel) medium. All media was supplemented with 10% fetal bovine serum (FBS), 200 μM L-glutamine (BI), and 1% penicillin-streptomycin (BI). Cells were cultured at 37° C. in a 5% CO2 humidified incubator.
(§2) The XTT Cell Proliferation Assay Kit was used to determine cell viability and proliferation. Cells were seeded in 96-well plates at a density of 4,000 cells per well and allowed to attach overnight in a 5% CO2 incubator at 37° C. After overnight incubation, cells were treated with culture medium or in a medium containing tigecycline, omadacycline, or eravacycline at different concentrations (1, 2, 5, 10, 25, and 50 μM) for the indicated time period. […] After shaking the plate gently to distribute the dye in the wells, the absorbance was measured with a spectrophotometer (Bio-RadiMark Microplate Absorbance reader) at a wavelength of 450 nm and a reference wavelength of 655 nm. […]

[1] = test system: Panc-1 scr, Panc-1 p53-R273H knock-out (KO) cell lines; test: XTT cell proliferation assay, Panc-1 cell lines; type: cell-based, human; details: 72 h, 1-50 μM
Experimental: as §1, §2

A549 cells = test: XTT cell proliferation assay, A549; type: cell-based, human; details: A549, 72 h, 1-50 μM
Experimental: as §1
Eravacycline dihydrochloride (MedChem Express (MCE)) was dissolved in […] (DDW). Tigecycline (MCE) and omadacycline (MCE) were dissolved in dimethyl sulphoxide (DMSO). All drugs were prepared as 100 mM stock solutions. All cell lines were treated with DMSO as a control (less than 0.1%) or tigecycline, omadacycline, or eravacycline (at the indicated concentrations) for 72 hours. Cell viability and proliferation were determined using the XTT Cell Proliferation Assay Kit (Promega).
The XTT Cell Proliferation Assay Kit was used to determine cell viability and proliferation. Cells were seeded in 96-well plates at a density of 4,000 cells per well and allowed to attach overnight in a 5% CO2 incubator at 37° C. […] After shaking the plate gently to distribute the dye in the wells, the absorbance was measured with a spectrophotometer (Bio-RadiMark Microplate Absorbance reader) at a wavelength of 450 nm and a reference wavelength of 655 nm.
To evaluate the half maximal inhibitory concentration (IC50) of tetracycline derivatives on five different cell lines (MCF-7, A549, HT-29, BxPC-3, and AsPC-1), the cells were seeded and allowed to attach overnight. […] Inhibition of cell proliferation was determined using the XTT Cell Proliferation Assay Kit. […]

BxPC-3 xenograft tumors = test: BxPC-3 cell xenograft tumor model; type: in vivo, athymic nude mice; details: nude mice
Experimental: Six-week-old female athymic nude mice were purchased from Envigo (Jerusalem, Israel) and housed in pathogen-free conditions and fed a standard sterilized diet. The mice were housed in humidity- and temperature-controlled conditions, and the light/dark cycle was set at 12 h intervals. The animal protocol was reviewed and approved by the Committee for the Ethical Care and Use of Animals in Research at Ben-Gurion University of the Negev, complying with the Israeli Animal Welfare Law. BxPC-3 cells (4×10^6) were injected subcutaneously into one flank of the mice. Tumor size was measured every other day based on caliper measurements of tumor length and width (volume=tumor length×width^2×0.5236). Ten days later, when tumors were palpable and reached volumes of 50-150 mm^3, the mice bearing tumors were randomly assigned to control or eravacycline groups (n=6). Treatment was administered every two days using either phosphate buffered saline (PBS), eravacycline (10 mg/kg by i.p. injection) or gemcitabine (25 mg/kg by i.p. injection) for 10 days. The tumor growth and mouse weight were measured every other day during the treatment period. After the last treatment, the mice were monitored for an additional six days, and then the experiment was terminated. The mice were then sacrificed, the tumors were excised, photographed, and measured, and the tumor tissues were snap-frozen, pending analysis.
To further assess the inhibition effect of eravacycline on human PDAC cells in vivo, BxPC-3 cells were injected subcutaneously into nude mice to establish xenograft models for in vivo experiments. The mice were randomly divided into three groups: the control group, the gemcitabine group (25 mg/kg), and the eravacycline group (10 mg/kg). Following the last administration of treatment, mice were monitored for an additional six days; then the experiment was terminated, the mice were sacrificed, and the tumors were excised, photographed, and weighed (FIGS. 6B-6D).

[2] = 10 mg/kg i.p. every two days for 10 days

mouse weight loss vs control group (BxPC-3 xenograft tumors; [2]): no significant weight loss
Compound: CN(C)[C@@H]1C(O)=C(C(N)=O)C(=O)[C@@]2(O)C(O)=C3C(=O)c4c(O)c(NC(=O)CN5CCCC5)cc(F)c4C[C@H]3C[C@@H]12 [eravacycline, (4S,4aS,5aR,12aS)-4-(Dimethylamino)-7-fluoro-3,10,12,12a-tetrahydroxy-1,11-dioxo-9-[2-(pyrrolidin-1-yl)acetamido]-1,4,4a,5,5a,6,11,12a-octahydrotetracene-2-carboxamide]
effect on cell proliferation of normal pancreatic cells (in words) (HPNE cell line): significantly less inhibition than the other PDAC cell lines | effect on cell viability (in words) [1]: No significant effect | effect on cell viability (in words) ([1]; listed as Eravacycline): no toxicity was observed | effect on cell survival / proliferation (in words) (A549 cells): No significant effect | tumor growth blocked (BxPC-3 xenograft tumors; [2]): 76% | tumor volume and tumor weight compared with gemcitabine (25 mg/kg) (BxPC-3 xenograft tumors; 10 mg/kg i.p.): superior to gemcitabine treatment
